Measurements published in US20240208992A1, “MACROCYCLES AS CFTR MODULATORS” (Idorsia Pharmaceuticals Ltd, priority 2021, published 2024).

Target: human F508del-CFTR (Homo sapiens, UniProt P13569, DEL508-508)
Experiment: F508del-CFTR cell surface expression (corrector activity), DiscoveRx ß-galactosidase complementation chemiluminescence assay in recombinant U2OS cell line;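 also: U2OS cells co-expressing ProLink-tagged F508del-CFTR and a membrane-anchored enzyme acceptor, where more surface CFTR restores β-galactosidase activity measured by chemiluminescence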
Conditions: U2OS cells, 16h compound incubation; for EC50: EC50, F508del-CFTR cell surface expression, geomean of several measurements; for Emax: U2OS, in relation to the Emax of the corrector lumacaftor (=100%), arithmetic mean

human F508del-CFTR, sequence (P13569 with tags, fused parts or gaps DEL508-508): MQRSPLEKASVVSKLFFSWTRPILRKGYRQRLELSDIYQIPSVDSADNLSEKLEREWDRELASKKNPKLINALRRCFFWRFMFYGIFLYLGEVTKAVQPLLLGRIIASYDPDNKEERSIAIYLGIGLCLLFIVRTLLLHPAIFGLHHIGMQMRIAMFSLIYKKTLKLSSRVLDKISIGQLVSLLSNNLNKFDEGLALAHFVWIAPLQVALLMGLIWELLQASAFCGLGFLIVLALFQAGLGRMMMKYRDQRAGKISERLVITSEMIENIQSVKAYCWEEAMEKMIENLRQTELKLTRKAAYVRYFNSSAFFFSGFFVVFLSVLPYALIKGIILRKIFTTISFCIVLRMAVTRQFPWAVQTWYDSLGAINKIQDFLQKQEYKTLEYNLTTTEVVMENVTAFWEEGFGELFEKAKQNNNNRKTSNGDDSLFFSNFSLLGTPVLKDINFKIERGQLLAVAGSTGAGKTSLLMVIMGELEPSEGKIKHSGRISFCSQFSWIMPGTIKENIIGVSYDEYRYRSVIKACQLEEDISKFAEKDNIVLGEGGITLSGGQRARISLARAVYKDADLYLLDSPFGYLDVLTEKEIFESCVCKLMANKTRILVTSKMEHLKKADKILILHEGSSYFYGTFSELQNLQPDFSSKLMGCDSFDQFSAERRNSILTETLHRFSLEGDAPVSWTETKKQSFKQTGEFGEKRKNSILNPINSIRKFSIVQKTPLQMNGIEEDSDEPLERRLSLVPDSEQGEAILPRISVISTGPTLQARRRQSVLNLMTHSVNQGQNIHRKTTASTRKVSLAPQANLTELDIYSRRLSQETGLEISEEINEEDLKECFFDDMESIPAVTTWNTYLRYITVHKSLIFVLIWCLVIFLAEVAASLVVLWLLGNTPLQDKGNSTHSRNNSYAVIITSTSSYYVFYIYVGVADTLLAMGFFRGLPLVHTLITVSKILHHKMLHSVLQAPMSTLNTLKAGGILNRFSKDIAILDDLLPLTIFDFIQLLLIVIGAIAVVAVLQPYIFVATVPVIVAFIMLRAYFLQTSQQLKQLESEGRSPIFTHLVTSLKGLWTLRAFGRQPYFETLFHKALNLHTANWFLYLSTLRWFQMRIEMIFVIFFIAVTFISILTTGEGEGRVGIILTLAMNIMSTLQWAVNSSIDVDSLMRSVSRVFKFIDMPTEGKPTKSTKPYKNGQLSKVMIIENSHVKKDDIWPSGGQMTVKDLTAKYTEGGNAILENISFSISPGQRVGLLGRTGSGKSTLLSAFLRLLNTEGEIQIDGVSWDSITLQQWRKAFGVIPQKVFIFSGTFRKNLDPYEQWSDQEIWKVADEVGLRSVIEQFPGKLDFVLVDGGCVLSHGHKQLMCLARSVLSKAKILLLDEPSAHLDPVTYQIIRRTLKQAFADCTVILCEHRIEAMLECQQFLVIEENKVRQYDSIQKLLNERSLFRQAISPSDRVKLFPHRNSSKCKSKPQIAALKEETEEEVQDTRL

Structure (SMILES) | EC50 | Emax
COc1nccc2c1C(=O)N[C@H](C(=O)NCCc1noc(C3CC3)n1)CC(=O)N(C)[C@@H](CC(C)C)C(=O)N(C)[C@H](Cc1nc(-c3ccccc3)no1)C(=O)N[C@H](Cc1ccccc1)CO2 [Example 859, (3R,6R,9S,13S)-3-benzyl-N-(2-(5-cyclopropyl-1,2,4-oxadiazol-3-yl)ethyl)-9-isobutyl-16-methoxy-7,10-dimethyl-5,8,11,15-tetraoxo-6-((3-phenyl-1,2,4-oxadiazol-5-yl)methyl)-2,3,4,5,6,7,8,9,10,11,12,13,14,15-tetradecahydropyrido[3,4-p][1]oxa[4,7,10,14]tetraazacycloheptadecine-13-carboxamide] | 36 nM | 342%
COc1cccc(CCNC(=O)[C@@H]2CC(=O)N(C)[C@@H](CC(C)C)C(=O)N(C)[C@H](C)C(=O)N[C@H](Cc3ccccc3)COc3nc(C)nc(OC)c3C(=O)N2)c1 [Example 860, (7S,11S,14R,17R)-17-benzyl-11-isobutyl-4-methoxy-N-(3-methoxyphenethyl)-2,10,13,14-tetramethyl-5,9,12,15-tetraoxo-5,6,7,8,9,10,11,12,13,14,15,16,17,18-tetradecahydropyrimido[5,4-p][1]oxa[4,7,10,14]tetraazacycloheptadecine-7-carboxamide] | 578 nM | 288%
COc1cc(C[C@@H]2C(=O)N[C@H](Cc3ccccc3)COc3ccnc(OC)c3C(=O)N[C@H](C(=O)NCCc3noc(C4CC4)n3)CC(=O)N(C)[C@@H](CC(C)C)C(=O)N2C)on1 [Example 861, (3R,6R,9S,13S)-3-benzyl-N-(2-(5-cyclopropyl-1,2,4-oxadiazol-3-yl)ethyl)-9-isobutyl-16-methoxy-6-((3-methoxyisoxazol-5-yl)methyl)-7,10-dimethyl-5,8,11,15-tetraoxo-2,3,4,5,6,7,8,9,10,11,12,13,14,15-tetradecahydropyrido[3,4-p][1]oxa[4,7,10,14]tetraazacycloheptadecine-13-carboxamide] | 722 nM | 384%
COc1nc(C)nc2c1C(=O)N[C@H](C(=O)NCCc1cc(C3CC3)no1)CC(=O)N(C)[C@@H](CC(C)C)C(=O)N(C)[C@H](C)C(=O)N[C@H](Cc1ccccc1)CO2 [Example 862, (7S,11S,14R,17R)-17-benzyl-N-(2-(3-cyclopropylisoxazol-5-yl)ethyl)-11-isobutyl-4-methoxy-2,10,13,14-tetramethyl-5,9,12,15-tetraoxo-5,6,7,8,9,10,11,12,13,14,15,16,17,18-tetradecahydropyrimido[5,4-p][1]oxa[4,7,10,14]tetraazacycloheptadecine-7-carboxamide] | 921 nM | 335%
COc1nccc2c1C(=O)N[C@H](C(=O)NCCc1noc(C3CC3)n1)CC(=O)N(C)[C@@H](CC(C)C)C(=O)N1CCCCC[C@@H]1C(=O)N[C@H](Cc1ccccc1)CO2 [Example 863, (7S,11S,18aR,21R)-21-benzyl-N-(2-(5-cyclopropyl-1,2,4-oxadiazol-3-yl)ethyl)-11-isobutyl-4-methoxy-10-methyl-5,9,12,19-tetraoxo-5,6,7,8,9,10,11,12,14,15,16,17,18,18a,19,20,21,22-octadecahydroazepino[2,1-f]pyrido[3,4-p][1]oxa[4,7,10,14]tetraazacycloheptadecine-7-carboxamide] | 587 nM | 326%
COc1nccc2c1C(=O)N[C@H](C(=O)NCCc1noc(C3CC3)n1)CC(=O)N(C)[C@@H](CC(C)C)C(=O)N(C)[C@H](CCc1nc(C3CC3)no1)C(=O)N[C@H](Cc1ccccc1)CO2 [Example 864, (3R,6R,9S,13S)-3-benzyl-N-(2-(5-cyclopropyl-1,2,4-oxadiazol-3-yl)ethyl)-6-(2-(3-cyclopropyl-1,2,4-oxadiazol-5-yl)ethyl)-9-isobutyl-16-methoxy-7,10-dimethyl-5,8,11,15-tetraoxo-2,3,4,5,6,7,8,9,10,11,12,13,14,15-tetradecahydropyrido[3,4-p][1]oxa[4,7,10,14]tetraazacycloheptadecine-13-carboxamide] | 617 nM | 385%
COc1cccc(CCNC(=O)[C@@H]2CC(=O)N(C)[C@@H](CC(C)C)C(=O)N(C)[C@H](C(C)(C)C)C(=O)N[C@H](Cc3ccccc3)COc3cc(C)nc(OC)c3C(=O)N2)c1 [Example 865, (3R,6R,9S,13S)-3-benzyl-6-(tert-butyl)-9-isobutyl-16-methoxy-N-(3-methoxyphenethyl)-7,10,18-trimethyl-5,8,11,15-tetraoxo-2,3,4,5,6,7,8,9,10,11,12,13,14,15-tetradecahydropyrido[3,4-p][1]oxa[4,7,10,14]tetraazacycloheptadecine-13-carboxamide] | 103 nM | 356%
COc1nc(C)cc2c1C(=O)N[C@H](C(=O)NCCc1cc(C)no1)CC(=O)N(C)[C@@H](CC(C)C)C(=O)N(C)[C@H](C(C)(C)C)C(=O)N[C@H](Cc1ccccc1)CO2 [Example 866, (3R,6R,9S,13S)-3-benzyl-6-(tert-butyl)-9-isobutyl-16-methoxy-7,10,18-trimethyl-N-(2-(3-methylisoxazol-5-yl)ethyl)-5,8,11,15-tetraoxo-2,3,4,5,6,7,8,9,10,11,12,13,14,15-tetradecahydropyrido[3,4-p][1]oxa[4,7,10,14]tetraazacycloheptadecine-13-carboxamide] | 337 nM | 324%
COCCc1ccc(-c2noc(C[C@@H]3C(=O)N[C@H](Cc4ccccc4)COc4ccnc(OC)c4C(=O)N[C@H](C(=O)NCCc4noc(C5CC5)n4)CC(=O)N(C)[C@@H](CC(C)C)C(=O)N3C)n2)cc1 [Example 867, (3R,6R,9S,13S)-3-benzyl-N-(2-(5-cyclopropyl-1,2,4-oxadiazol-3-yl)ethyl)-9-isobutyl-16-methoxy-6-((3-(4-(2-methoxyethyl)phenyl)-1,2,4-oxadiazol-5-yl)methyl)-7,10-dimethyl-5,8,11,15-tetraoxo-2,3,4,5,6,7,8,9,10,11,12,13,14,15-tetradecahydropyrido[3,4-p][1]oxa[4,7,10,14]tetraazacycloheptadecine-13-carboxamide] | 31 nM | 413%
COCCc1ccc(-c2noc(C[C@@H]3C(=O)N[C@H](Cc4ccccc4)COc4ccnc(OC)c4C(=O)N[C@H](C(=O)NCCc4cc(OC)no4)CC(=O)N(C)[C@@H](CC(C)C)C(=O)N3C)n2)cc1 [Example 868, (3R,6R,9S,13S)-3-benzyl-9-isobutyl-16-methoxy-6-((3-(4-(2-methoxyethyl)phenyl)-1,2,4-oxadiazol-5-yl)methyl)-N-(2-(3-methoxyisoxazol-5-yl)ethyl)-7,10-dimethyl-5,8,11,15-tetraoxo-2,3,4,5,6,7,8,9,10,11,12,13,14,15-tetradecahydropyrido[3,4-p][1]oxa[4,7,10,14]tetraazacycloheptadecine-13-carboxamide] | 18 nM | 397%
COc1cc2c(c(OC)n1)C(=O)N[C@H](C(=O)NCCc1cc(C)no1)CC(=O)N(C)[C@@H](CC(C)C)C(=O)N1CCCC[C@@H]1C(=O)N[C@H](Cc1ccccc1)CO2 [Example 869, (7S,11S,17aR,20R)-20-benzyl-11-isobutyl-2,4-dimethoxy-10-methyl-N-(2-(3-methylisoxazol-5-yl)ethyl)-5,9,12,18-tetraoxo-5,6,7,8,9,10,11,12,15,16,17,17a,18,19,20,21-hexadecahydro-14H-dipyrido[2,1-f:3′,4′-p][1]oxa[4,7,10,14]tetraazacycloheptadecine-7-carboxamide] | 358 nM | 305%
COc1cc2c(c(OC)n1)C(=O)N[C@H](C(=O)NCCc1cc(C3CC3)no1)CC(=O)N(C)[C@@H](CC(C)C)C(=O)N1CCCC[C@@H]1C(=O)N[C@H](Cc1ccccc1)CO2 [Example 870, (7S,11S,17aR,20R)-20-benzyl-N-(2-(3-cyclopropylisoxazol-5-yl)ethyl)-11-isobutyl-2,4-dimethoxy-10-methyl-5,9,12,18-tetraoxo-5,6,7,8,9,10,11,12,15,16,17,17a,18,19,20,21-hexadecahydro-14H-dipyrido[2,1-f:3′,4′-p][1]oxa[4,7,10,14]tetraazacycloheptadecine-7-carboxamide] | 201 nM | 316%
COCCc1ccc(-c2noc(C[C@@H]3C(=O)N[C@H](Cc4ccccc4)COc4ccnc(OC)c4C(=O)N[C@H](C(=O)NCCn4ncc(C5CC5)n4)CC(=O)N(C)[C@@H](CC(C)C)C(=O)N3C)n2)cc1 [Example 871, (3R,6R,9S,13S)-3-benzyl-N-(2-(4-cyclopropyl-2H-1,2,3-triazol-2-yl)ethyl)-9-isobutyl-16-methoxy-6-((3-(4-(2-methoxyethyl)phenyl)-1,2,4-oxadiazol-5-yl)methyl)-7,10-dimethyl-5,8,11,15-tetraoxo-2,3,4,5,6,7,8,9,10,11,12,13,14,15-tetradecahydropyrido[3,4-p][1]oxa[4,7,10,14]tetraazacycloheptadecine-13-carboxamide] | 32 nM | 378%
COc1noc(CCNC(=O)[C@@H]2CC(=O)N(C)[C@@H](CC(C)C)C(=O)N(C)C3(CC3)C(=O)N[C@H](Cc3ccccc3)COc3cnc4ccccc4c3C(=O)N2)n1 [Example 872, (3′S,7′S,13′R)-13′-benzyl-7′-isobutyl-N-(2-(3-methoxy-1,2,4-oxadiazol-5-yl)ethyl)-6′,9′-dimethyl-1′,5′,8′,11′-tetraoxo-2′,3′,4′,5′,6′,7′,8′,9′,11′,12′,13′,14′-dodecahydro-1′H-spiro[cyclopropane-1,10′-[1]oxa[4,7,10,14]tetraazacycloheptadecino[17,16-c]quinoline]-3′-carboxamide] | 535 nM | 318%
COc1cccc(CCNC(=O)[C@@H]2CC(=O)N(C)[C@@H](CC(C)C)C(=O)N(C)[C@H](CC(C)(C)C)C(=O)N[C@H](Cc3ccccc3)COc3cc(C)nc(OC)c3C(=O)N2)c1 [Example 873, (3R,6R,9S,13S)-3-benzyl-9-isobutyl-16-methoxy-N-(3-methoxyphenethyl)-7,10,18-trimethyl-6-neopentyl-5,8,11,15-tetraoxo-2,3,4,5,6,7,8,9,10,11,12,13,14,15-tetradecahydropyrido[3,4-p][1]oxa[4,7,10,14]tetraazacycloheptadecine-13-carboxamide] | 41 nM | 336%
